Reference: PubChem BioAssay (NCI)
“And” between values parts separate entries of the source, which are not always exact repeats. Equal entries are not always repeated.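 Compound exposure: 48 hours, 5 concentrations, 96-well plates. The concentration for 50% growth inhibition is given as GI50. At the TGI there is no net growth.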

Assays:
Experiment in all cases: inhibition of tumour cell growth, NCI panel, 48 h
786-0 renal = test system: 786-0 renal
SW-620 colon = test system: SW-620 colon
MDA-N = test system: MDA-N
OVCAR-5 ovarian = test system: OVCAR-5 ovarian
NCI/ADR-RES ovarian = test system: NCI/ADR-RES ovarian
COLO 205 colon = test system: COLO 205 colon
OVCAR-3 ovarian = test system: OVCAR-3 ovarian
SNB-19 CNS = test system: SNB-19 CNS
UACC-257 melanoma = test system: UACC-257 melanoma

| Structure (SMILES) | TGI (786-0 renal) | TGI (SW-620 colon) | TGI (MDA-N) | TGI (OVCAR-5 ovarian) | TGI (NCI/ADR-RES ovarian) | TGI (COLO 205 colon) | TGI (OVCAR-3 ovarian) | TGI (SNB-19 CNS) | TGI (UACC-257 melanoma) | GI50 (786-0 renal) | GI50 (SW-620 colon) | GI50 (SNB-19 CNS) | GI50 (MDA-N) | GI50 (OVCAR-5 ovarian) | GI50 (NCI/ADR-RES ovarian) | GI50 (UACC-257 melanoma) | GI50 (OVCAR-3 ovarian) | GI50 (COLO 205 colon) |
| --- | --- | --- | --- | --- | --- | --- | --- | --- | --- | --- | --- | --- | --- | --- | --- | --- | --- | --- |
| CC(=O)OCC1OC(n2ncc(=O)[nH]c2=O)C(OC(C)=O)C1OC(C)=O (stereo unspecified) | > 100 µM | > 100 µM | > 100 µM | > 100 µM | > 100 µM | > 100 µM | > 100 µM | – | – | – | – | – | – | – | – | – | – | – |
| O=C(O)Cc1ccc(N=Nc2c(O)c(C(=O)O)cc3ccccc23)cc1 | > 100 µM | > 100 µM | > 100 µM | > 100 µM | > 100 µM | > 100 µM | > 100 µM | > 100 µM | > 100 µM | – | – | – | – | – | – | – | – | – |
| O=C1CC(CC(OCc2ccccc2)C(OCc2ccccc2)C(COCc2ccccc2)OCc2ccccc2)CC(=O)N1 (stereo unspecified) | > 100 µM and 49.3 µM | > 100 µM and 23.9 µM | > 100 µM and 27.7 µM | > 100 µM and 80.8 µM | > 100 µM | – | > 100 µM and 44 µM | > 100 µM | > 100 µM and 36.4 µM | > 100 µM and 11 µM | > 100 µM and 11.7 µM | > 100 µM and 33.8 µM | > 100 µM and 12.5 µM | > 100 µM and 24.9 µM | > 100 µM and 12.8 µM | > 100 µM and 16.3 µM | > 100 µM and 12.2 µM | – |
| CN1CCN(CCCN2c3ccccc3Sc3ccc(Cl)cc32)CC1 | 12.8 µM and 61.4 µM | 12 µM and 62.5 µM | 61.4 µM | 14 µM and 62.9 µM | 12.8 µM and 78.6 µM | 11.6 µM and 51.1 µM | 12.8 µM | 14.3 µM | – | 6.15 µM and 38 µM | 5.72 µM and 41.8 µM | 7.05 µM and 60.7 µM | 42.1 µM | 7.09 µM and 43.1 µM | 6 µM and 44.5 µM | – | 5.94 µM and 55.2 µM | 4.37 µM and 36.6 µM |
| CC1(C)CCC(C)(C)c2cc(NC(=O)c3ccc(C(=O)O)cc3)ccc21 | > 85.4 µM | > 100 µM | > 100 µM | > 95.2 µM | > 86.1 µM | > 55.9 µM | > 57.9 µM | 99.3 µM | > 100 µM | – | – | – | – | – | – | – | – | – |
| CC(C)C(=O)c1c(C(F)(F)F)n([O-])c2ccccc2[n+]1=O | 3.73 µM | 17.5 µM | – | 6.25 µM | 5.46 µM | 2.97 µM | 1.24 µM | 25.8 µM | 7.8 µM | 1.65 µM | 4.34 µM | 3.51 µM | – | 2.7 µM | 1.74 µM | 2.74 µM | 0.493 µM | 1.31 µM |
| Nc1nn(C(=O)Nc2c(F)cccc2F)c2ccccc12 | > 100 µM | > 100 µM | – | > 100 µM | > 100 µM | > 100 µM | > 100 µM | > 100 µM | > 100 µM | > 100 µM | 38.3 µM | > 100 µM | – | > 100 µM | 56.5 µM | 71.7 µM | 65.7 µM | > 100 µM |
| CC(=O)N[C@@H](Cc1ccc(OP(=O)(O)O)cc1)C(=O)N[C@H]1CCC(=O)N2CCC[C@@H](C(=O)NCc3ccccc3)N2C1=O | > 25 µM | > 25 µM | – | > 25 µM | > 25 µM | > 25 µM | > 25 µM | > 25 µM | > 25 µM | > 25 µM | > 25 µM | > 25 µM | – | > 25 µM | > 25 µM | > 25 µM | > 25 µM | > 25 µM |
| COc1cc(C2CC(=O)Nc3c2c(C)nn3-c2nc3ccccc3[nH]2)cc(OC)c1O (stereo unspecified) | 9.39 µM | 17.4 µM | – | 30.4 µM | > 78.2 µM | 46 µM | 7.78 µM | > 100 µM | > 24.5 µM | 3.01 µM | 3.04 µM | 3.5 µM | – | 11.6 µM | 7.81 µM | 2.98 µM | 2.95 µM | 17.2 µM |
| C/C=C(\C)C(=O)O[C@H]1C=CC(=O)O[C@H]1COC(=O)[C@H](C)O | 20.9 µM | 15.1 µM | – | 39 µM | 32.6 µM | 15.5 µM | 14 µM | 27 µM | 30.8 µM | 6.59 µM | 4.28 µM | 12.1 µM | – | 18.8 µM | 12.1 µM | 14.7 µM | 3.44 µM | 3.07 µM |
| Cc1ccsc1-c1ccc2c(c1)COC2(CCCN(C)C)c1ccc(F)cc1 (stereo unspecified) | 7.97 µM | 3.75 µM | – | 15 µM | 15.2 µM | 4.19 µM | 9.02 µM | 10.3 µM | 3.98 µM | 2.54 µM | 1.78 µM | 2.77 µM | – | 3.81 µM | 3.83 µM | 1.94 µM | 2.64 µM | 1.92 µM |
| CN(C)CCOc1ccccc1NC1=C(Cl)C(=O)C(Nc2ccccc2OCCN(C)C)=C(Cl)C1=O | 5.92 µM | 1.24 µM | – | > 38.6 µM | > 100 µM | 3.77 µM | 0.879 µM | > 49.8 µM | > 41.1 µM | 1.64 µM | 0.566 µM | 24.9 µM | – | 10.2 µM | 24.6 µM | – | 0.444 µM | 1.78 µM |
| O=[N+]([O-])c1ccc2c(c1)C(c1ccccc1Cl)=Nc1c(n[nH]c1-c1cccnc1)N2 | > 25 µM | > 25 µM | – | > 25 µM | > 25 µM | > 25 µM | > 25 µM | > 25 µM | > 25 µM | > 25 µM | > 25 µM | > 25 µM | – | > 25 µM | > 25 µM | > 25 µM | > 25 µM | > 25 µM |
| CC(=O)OCCCC#CC#Cc1cccc(=O)o1 | 35.1 µM | 37.5 µM | – | 42.4 µM | > 100 µM | 41.8 µM | 14.2 µM | 67.7 µM | 55.6 µM | 19 µM | 13.6 µM | 25.6 µM | – | 22.3 µM | 39.6 µM | 23.8 µM | 2.89 µM | 19.4 µM |
| CN(C)C=Nc1c(I)cc(I)c(CCC(=O)O)c1I | > 100 µM | > 100 µM | – | > 100 µM | > 100 µM | > 100 µM | > 100 µM | > 100 µM | > 100 µM | > 100 µM | > 100 µM | > 100 µM | – | > 100 µM | > 100 µM | > 100 µM | > 100 µM | > 100 µM |
